Reference: patent publication EP0589069A1, “Hydroquinone derivatives and antioxidants and tumor inhibitors containing them” (NIPPON HYPOX LABORATORIES INCORPORATED, priority 1992, dated 1994)

Experiments:
Salmonella TA 98 = assay: Antimutagenic activity test on mutagenesis of heterocyclic amine to Salmonellae (preincubation Ames test with S9 mix); type: cell-based; conditions: mutagen IQ 0.005 µg; test compound 20.0 µg
Method: Compounds of the present invention were tested on their antimutagenic activity to heterocyclic amines of Glu-P-1·HCl, Trp-P-1 acetate and IQ by a preincubation method-applied Ames test according to the method of Diane et al (Diane F. Birt, et al., Carcinogenesis, Vol. 7, No. 6, 959-963, 1986).
That is, S9 mix (0.5 ml), 0.1 ml of a Salmonella TA 98 medium, a compound of the present invention dissolved in DMSO and 0.1 ml of one of the above mutagens were charged into a test tube, and cultured at 37°C for 20 minutes with shaking. Then, 2 ml of soft agar was added to, and mixed with, the contents in the test tube. The resultant mixture was spread over a minimal glucose agar medium, and cultured at 37°C for 48 hours, and the number of reverse mutation colonies. Two or three plates were prepared each dosage, and the test results were compared with the test result of a negative control group to which DMSO alone was added and the test result of a positive control group to which the corresponding mutagen alone was added. […]

[1] = system: lipid of rat liver microsome; assay: Inhibition activity against hyperoxidation of lipid of rat liver microsome (thiobarbituric acid method); type: biochemical; conditions: for Inhibition ratio of lipid peroxidation (%): rat liver microsome, NADPH/ADP/FeCl₃, 37°C; for antioxidant activity (result in words on Table 2): summary of Table 2
Method: [Inhibition activity against hyperoxidation of lipid of rat liver microsome]
A plurality of male SD rats (weighing […]) were prepared. Each rat was anesthetized with pentobarbital, and then subjected to celiotomy. A cannula was introduced into the portal vein of each rat, the abdominal large veins were sectioned, and 500 ml of cold 0.9 % NaCl was injected into the portal veins.
Livers were extracted from individual rats, and the livers were cut to pieces in 1.15 % KCl and homogenized with ice cooling. Then, 1.15 % KCl was further added to obtain a 30 % liver homogenized solution.
The above homogenized solution was centrifugally separated at 8,000 g (g: gravitation acceleration) for 10 minutes, and the resultant supernatant was recovered.
The so-prepared suspension was stored at -20°C before a test described in the following (2), and it was used within 1 week after the preparation.
As test compounds, the hydroquinone derivatives obtained in Preparation Examples 1 to 12, a known hydroquinone derivative which was a compound of the formula (I) in which R¹ was methyl (hereinafter referred to as HQ1) and BHT were respectively tested on their inhibition activities against hyperoxidation of lipid in the following manner.
First, 0.1 ml of the liver microsome suspension obtained in the above (1), 0.1 ml of NADPH (final concentration 2 mM), 0.1 ml of ADP (final concentration 10 mM) and 0.1 ml of a solution of one of the test compounds whose concentration was adjusted as shown in Table 2 with 10 % DMF were added to a tris-HCl buffer (167 mM KCl, 74 mM TRIS, pH 7.4), and the resultant mixture was warmed at 37°C for 5 minutes. Then, 0.1 ml of FeCl₃ (final concentration 0.1 mM) was added, and the mixture was warmed at 37°C for 20 minutes.
The resultant reaction mixture was cooled with ice. Then, 0.2 ml of 8.1 % SDS, 1.5 ml of an acetic acid buffer (prepared by adjusting 20 % acetic acid containing 0.27 mM HCl to pH 3.5 with 10N NaOH) and 1.5 ml of 0.8 % thiobarbituric acid were added to the cooled reaction mixture, and the resultant mixture was warmed over a boiling water bath for 20 minutes. After the warming, the reaction mixture was cooled with ice, and 4 ml of an n-BuOH/pyridine mixed solution [n-BuOH:pyridine = 15:1 (volume ratio)] was added to the cooled reaction mixture. The mixture was vigorously stirred.
The reaction mixture was centrifugally separated at 2,000 rpm for 10 minutes, and the resultant supernatant was measured for an absorbance at 532 nm to determine a thiobarbituric acid reaction amount. And, on the basis of a calibration curve of […] (MDA) amount prepared by using 1,1,3,3-tetramethoxypropane, a peroxidized lipid amount was determined as an amount of formed MDA.
In Control, the solution of the test compound in 10 % DMF was replaced with 0.1 ml of a 10 % DMF solution, and the above procedures were repeated to determine a peroxidized lipid amount. In Blank, each of 0.1 ml of NDAPH, 0.1 ml of ADP and 0.1 ml of FeCl₃ were replaced with 0.1 ml of water, the solution of the test compound in 10 % DMF was replaced with 0.1 ml of a 10 % DMF solution, and the above procedures were repeated to determine a peroxidized lipid amount.
The inhibition ratio of the lipid peroxidation reaction was calculated on the basis of the following equation. Inhibition ratio (%) =[1-(OD₁-OD₃)/(OD₂-OD₃)] x 100 [formula] OD₁: Absorbance when test compound is added. OD₂: Absorbance of Control OD₃: Absorbance of Blank

[2] = test compound concentration 10⁻⁶M
[3] = test compound concentration 10⁻⁵M

| Substance | Mutagenesis inhibition ratio (Salmonella TA 98) | Inhibition ratio of lipid peroxidation (%) [1, 2] | antioxidant activity (result in words on Table 2) [1] | Inhibition ratio of lipid peroxidation (%) [1, 3] |
| --- | --- | --- | --- | --- |
| 1-butyl-2,3,5-trimethylhydroquinone [Preparation Example 3] | 85 | 75.9% | – | – |
| 1-decylhydroquinone [Preparation Example 2] | – | 1.8% | excellent antioxidant activity over the known hydroquinone derivative HQ1 | 79.5% |
| 1-octylhydroquinone [Preparation Example 1] | – | 9.8% | excellent antioxidant activity over the known hydroquinone derivative HQ1 | 99.7% |
| 4-hexyl-2,3,5-trimethylhydroquinone [Preparation Example 8] | – | 40% | – | 98.3% |
